In one assay the test system is postmenopausal person. As to conditions: singular use; cited from earlier work.
For another assay, the target named is T1, recombinant human ERβ (Homo sapiens, UniProt Q92731).
T1 construct: purchased PanVera Corporation (Madison, Wis.); host or cells: baculovirus-mediated expression system
Nature of the assay: ERβ binding assay: competition of [3H]E2 binding by competing estrogens. The settings on record: for RBAβ (%) (relative binding affinity for ERβ, of E2): calculated against E2 = 100; for binding affinity for ERβ (in words): concentrations up to 1000 nM; for IC50: read-out: ERβ IC50.

The next assay addresses T2, recombinant human ERα (Homo sapiens, UniProt P03372).
T2 construct: purchased PanVera Corporation (Madison, Wis.); host or cells: baculovirus-mediated expression system
T2 sequence (P03372 1-595): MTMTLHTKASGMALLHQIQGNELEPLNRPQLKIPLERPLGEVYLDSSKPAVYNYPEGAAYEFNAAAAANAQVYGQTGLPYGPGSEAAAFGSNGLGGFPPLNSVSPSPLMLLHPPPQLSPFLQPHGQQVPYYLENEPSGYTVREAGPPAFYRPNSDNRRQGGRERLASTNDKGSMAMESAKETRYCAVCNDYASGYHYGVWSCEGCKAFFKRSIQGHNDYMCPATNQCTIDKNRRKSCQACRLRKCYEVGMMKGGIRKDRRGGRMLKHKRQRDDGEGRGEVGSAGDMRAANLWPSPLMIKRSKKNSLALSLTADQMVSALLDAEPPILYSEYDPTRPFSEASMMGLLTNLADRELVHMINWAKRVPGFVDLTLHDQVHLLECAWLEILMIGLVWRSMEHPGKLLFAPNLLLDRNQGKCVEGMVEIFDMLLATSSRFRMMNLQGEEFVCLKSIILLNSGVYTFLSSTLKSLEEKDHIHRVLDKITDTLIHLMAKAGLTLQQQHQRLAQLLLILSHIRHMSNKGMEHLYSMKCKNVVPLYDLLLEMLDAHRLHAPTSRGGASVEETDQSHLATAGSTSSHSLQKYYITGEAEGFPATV
The assay is described as follows: ERα binding assay: competition of [3H]E2 binding by competing estrogens. The settings on record: for RBAα % (relative binding affinity for ERα, of E2): calculated against E2 = 100; for binding affinity for ERα (in words): concentrations up to 1000 nM; for RBAα/RBAβ: ratio of relative binding affinities ERα over ERβ; for IC50: read-out: ERα IC50.

Bounds are passed on as bounds.

By IC50 is commonly meant the concentration needed to halve the response being measured.

T1 sequence (Q92731 whole entry): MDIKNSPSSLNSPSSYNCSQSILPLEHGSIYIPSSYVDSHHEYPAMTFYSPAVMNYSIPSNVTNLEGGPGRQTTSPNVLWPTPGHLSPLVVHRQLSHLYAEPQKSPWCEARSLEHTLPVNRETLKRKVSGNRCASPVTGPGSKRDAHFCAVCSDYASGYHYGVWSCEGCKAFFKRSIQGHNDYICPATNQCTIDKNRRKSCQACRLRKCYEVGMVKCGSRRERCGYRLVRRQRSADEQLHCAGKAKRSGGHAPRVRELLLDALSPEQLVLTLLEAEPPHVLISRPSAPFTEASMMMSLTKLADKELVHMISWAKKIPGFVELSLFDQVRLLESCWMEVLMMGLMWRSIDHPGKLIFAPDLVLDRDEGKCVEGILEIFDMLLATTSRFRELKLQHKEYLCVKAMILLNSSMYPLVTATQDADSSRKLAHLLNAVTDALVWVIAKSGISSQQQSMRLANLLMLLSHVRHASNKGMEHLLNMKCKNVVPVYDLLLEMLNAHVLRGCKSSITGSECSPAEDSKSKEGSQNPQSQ

For the compound `O=c1c(-c2ccc(O)cc2)coc2cc(O)cc(O)c12` [Genistein], the “effectiveness as hormone replacement therapy” value in the assay with postmenopausal person was “ineffective”.

For `C[C@]12CC[C@@H]3c4cc(N)c(O)cc4CC[C@H]3[C@@H]1CCC2=O` [2-NH2-E1, 2-Aminoestrone], at recombinant human ERβ, the “RBAβ (%) (relative binding affinity for ERβ, of E2)” value was 0.4%; the “binding affinity for ERβ (in words)” value is recorded as “very weak binding affinities”; the IC50 stood at 2510 nM. At recombinant human ERα, the “RBAα % (relative binding affinity for ERα, of E2)” value was 3%; the “binding affinity for ERα (in words)” value is reported as “very weak binding affinities”; the RBAα/RBAβ stood at 7.5; the IC50 is 398 nM. In addition, at recombinant human ERα (listed as 2-aminoestrone), the RBAα/RBAβ entry was “about 7.5”.

Consider `C[C@]12CC[C@@H]3c4ccc(OS(=O)(=O)O)cc4CC[C@H]3[C@@H]1CC[C@@H]2O` [E2-3-sulfate, Estradiol 3-sulfate], for which, at recombinant human ERβ, the “binding affinity for ERβ (in words)” value is “basically devoid of appreciable binding affinity” and the IC50 was over 1000 nM. Besides, at recombinant human ERα, the “binding affinity for ERα (in words)” value is listed as “basically devoid of appreciable binding affinity” and the IC50 is over 1000 nM.

Consider `CC12CCCC1C1CCc3cc(O)ccc3C1CC2` (stereo not drawn) [17-Desoxy-E2, 17-Desoxyestradiol], for which, at recombinant human ERβ, the “RBAβ (%) (relative binding affinity for ERβ, of E2)” value is 45% and the IC50 worked out at 19.9 nM. For the same compound, on recombinant human ERα, the “RBAα % (relative binding affinity for ERα, of E2)” value is recorded as 16%; the RBAα/RBAβ is reported as 0.4; the half-maximal inhibitory concentration (IC50) was found to be 70.8 nM.

The record behind these values is patent US20080293683A1, “Hormone Replacement Therapy” (University of Kansas Medical Center, priority 2007, published 2008).
